1 molecule from paper PMC10380377 (International Journal of Molecular Sciences, 2023) can be followed below.

One data set deals with T1, human Kv10.1 (Homo sapiens, UniProt O95259).
T1 construct: expressed in transfected cells; host or cells: Xenopus laevis oocytes injected with cRNA (pSGEM clone, T7 transcription)
T1 sequence (O95259 1-989): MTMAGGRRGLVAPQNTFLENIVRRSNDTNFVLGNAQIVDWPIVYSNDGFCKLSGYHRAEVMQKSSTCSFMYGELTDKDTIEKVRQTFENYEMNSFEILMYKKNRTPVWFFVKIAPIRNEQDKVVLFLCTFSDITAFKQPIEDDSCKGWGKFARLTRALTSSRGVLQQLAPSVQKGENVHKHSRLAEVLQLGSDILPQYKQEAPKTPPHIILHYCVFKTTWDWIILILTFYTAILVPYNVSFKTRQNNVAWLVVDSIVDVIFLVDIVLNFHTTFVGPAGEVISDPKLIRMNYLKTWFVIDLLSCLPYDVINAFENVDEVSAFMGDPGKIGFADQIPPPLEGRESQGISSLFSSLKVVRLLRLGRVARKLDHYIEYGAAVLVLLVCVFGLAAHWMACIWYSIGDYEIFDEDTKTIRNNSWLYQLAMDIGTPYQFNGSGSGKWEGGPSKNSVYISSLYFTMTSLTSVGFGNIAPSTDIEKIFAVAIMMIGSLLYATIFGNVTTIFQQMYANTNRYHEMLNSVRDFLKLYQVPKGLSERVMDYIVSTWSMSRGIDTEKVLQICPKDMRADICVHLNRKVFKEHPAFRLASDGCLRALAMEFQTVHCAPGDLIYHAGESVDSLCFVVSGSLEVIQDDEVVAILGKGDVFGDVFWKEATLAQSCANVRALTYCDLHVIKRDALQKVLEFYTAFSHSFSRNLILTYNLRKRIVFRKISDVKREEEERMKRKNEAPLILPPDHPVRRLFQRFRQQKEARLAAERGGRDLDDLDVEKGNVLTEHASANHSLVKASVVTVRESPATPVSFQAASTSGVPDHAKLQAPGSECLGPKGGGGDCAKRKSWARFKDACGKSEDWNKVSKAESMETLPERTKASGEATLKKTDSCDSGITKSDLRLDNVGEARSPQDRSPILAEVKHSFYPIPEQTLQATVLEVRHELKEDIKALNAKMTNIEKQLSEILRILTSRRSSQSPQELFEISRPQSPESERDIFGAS
In words: cell-based.

Another data set addresses T2, human Kv1.6 (Homo sapiens, UniProt P17658).
T2 construct: expressed in transfected cells; host or cells: Xenopus laevis oocytes injected with cRNA (pSGEM clone, T7 transcription)
In words: cell-based. It counts as cell-based.

A further data set deals with Kv10.1 potassium channel. It is filed as cell-based, human.
In data set [1] the target is T3, human Kv11.1 (Homo sapiens, UniProt Q12809).
Data set [2] concerns the target T3, human Kv11.1. Briefly: in vitro. The conditions noted are these: pH 7.2.

Positions of bridges follow the written chain, without caps; N, C: chain ends. Residues, ends and D or L forms follow the SMILES beside them.

T2 sequence (P17658 whole entry): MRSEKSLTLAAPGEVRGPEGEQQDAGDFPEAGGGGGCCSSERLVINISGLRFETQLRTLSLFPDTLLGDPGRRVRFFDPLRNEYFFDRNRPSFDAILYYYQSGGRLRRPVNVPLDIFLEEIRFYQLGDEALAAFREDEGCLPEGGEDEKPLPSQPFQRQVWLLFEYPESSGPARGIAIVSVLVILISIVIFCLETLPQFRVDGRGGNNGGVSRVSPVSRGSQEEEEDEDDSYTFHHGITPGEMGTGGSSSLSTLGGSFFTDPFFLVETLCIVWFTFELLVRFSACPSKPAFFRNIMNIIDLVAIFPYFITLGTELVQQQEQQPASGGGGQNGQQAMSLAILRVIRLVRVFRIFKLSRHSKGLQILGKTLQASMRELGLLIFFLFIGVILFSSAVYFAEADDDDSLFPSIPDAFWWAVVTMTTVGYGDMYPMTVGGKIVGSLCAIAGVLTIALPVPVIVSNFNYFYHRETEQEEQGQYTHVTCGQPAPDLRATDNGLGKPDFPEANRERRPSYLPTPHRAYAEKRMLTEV
T3 sequence (Q12809 whole entry): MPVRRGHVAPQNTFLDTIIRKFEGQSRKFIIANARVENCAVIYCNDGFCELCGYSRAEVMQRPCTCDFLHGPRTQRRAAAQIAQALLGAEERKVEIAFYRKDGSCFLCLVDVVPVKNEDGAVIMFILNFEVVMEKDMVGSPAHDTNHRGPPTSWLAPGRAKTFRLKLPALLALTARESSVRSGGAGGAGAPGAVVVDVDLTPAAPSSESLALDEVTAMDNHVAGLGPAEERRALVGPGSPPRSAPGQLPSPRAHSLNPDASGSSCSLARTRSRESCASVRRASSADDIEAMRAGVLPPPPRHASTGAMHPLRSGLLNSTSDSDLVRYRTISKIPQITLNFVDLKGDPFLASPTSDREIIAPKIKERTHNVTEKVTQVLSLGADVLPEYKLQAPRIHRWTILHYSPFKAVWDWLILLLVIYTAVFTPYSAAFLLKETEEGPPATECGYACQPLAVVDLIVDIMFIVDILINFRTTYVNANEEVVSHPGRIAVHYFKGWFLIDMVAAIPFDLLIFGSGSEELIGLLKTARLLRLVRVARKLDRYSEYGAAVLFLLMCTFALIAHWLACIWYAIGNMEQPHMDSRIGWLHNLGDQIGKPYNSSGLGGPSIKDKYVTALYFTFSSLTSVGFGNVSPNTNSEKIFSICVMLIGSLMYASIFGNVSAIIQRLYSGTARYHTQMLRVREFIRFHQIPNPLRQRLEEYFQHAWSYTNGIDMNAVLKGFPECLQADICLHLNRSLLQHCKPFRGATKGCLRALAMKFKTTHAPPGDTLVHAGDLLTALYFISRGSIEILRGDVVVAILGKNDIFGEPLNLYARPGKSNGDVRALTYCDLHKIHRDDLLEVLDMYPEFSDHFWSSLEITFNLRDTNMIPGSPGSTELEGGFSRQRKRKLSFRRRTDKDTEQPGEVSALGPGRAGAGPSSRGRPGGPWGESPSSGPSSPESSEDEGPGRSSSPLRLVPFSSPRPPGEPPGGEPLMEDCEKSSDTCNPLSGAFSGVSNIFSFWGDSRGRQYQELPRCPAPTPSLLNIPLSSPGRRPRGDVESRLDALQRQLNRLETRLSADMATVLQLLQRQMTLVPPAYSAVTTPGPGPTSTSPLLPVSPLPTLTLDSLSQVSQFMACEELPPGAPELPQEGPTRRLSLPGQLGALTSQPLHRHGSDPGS

Usually Hill coefficient stands for the slope factor of the fitted curve. Consider `CC[C@H](C)[C@H](NC(=O)[C@@H]1CSSC[C@@H]2NC(=O)[C@H](C(C)C)NC(=O)[C@H](CC(C)C)NC(=O)CNC(=O)[C@H](CC(C)C)NC(=O)CNC(=O)[C@@H]3CCCN3C(=O)[C@H](CC(C)C)NC(=O)CNC(=O)[C@@H]3CSSC[C@H](NC(=O)[C@H](C)NC(=O)CNC(=O)[C@H](CCCNC(=N)N)NC(=O)[C@H](CSSC[C@H](NC(=O)CN)C(=O)NCC(=O)N[C@@H](C(C)C)C(=O)N[C@@H](CC(=O)O)C(=O)NCC(=O)N[C@@H](CCC(N)=O)C(=O)N[C@@H](Cc4ccccc4)C(=O)N3)NC2=O)C(=O)N[C@@H](Cc2ccccc2)C(=O)N[C@@H](CC(C)C)C(=O)N[C@@H](C(C)C)C(=O)N1)C(=O)N[C@@H](Cc1ccc(O)cc1)C(=O)N[C@H](C(=O)N1CCC[C@H]1C(=O)O)[C@@H](C)CC` [κO-SrVIA] (H-GCGVDGQFCGLPGLGLVCCRGACFLVCIYIP-OH; disulfide 2-19, 9-23, 18-27), for which the Hill coefficient is recorded as 1.86 ± 0.25 on human Kv10.1, 3.35 ± 0.44 on human Kv1.6 and 2.85 ± 0.46 at human Kv11.1 [1]. The inhibition at 0.4 µM on human Kv10.1 (read-out: inhibitory activity) and against human Kv11.1 [2] was 10% each time. At human Kv1.6, the “effect on Kv1.6” value is on record as “no effect”. For the same molecule, the inhibition at 4 µM against human Kv1.6 was below 50%. Besides, the “inhibitory activity on the Kv10.1 channel” value with Kv10.1 potassium channel is listed as “the only fraction that had inhibitory activity on the Kv10.1 channel”.
